BigSolDB 2.1

O=C1OC[C@H]2[C@@H]1N(Cc1ccccc1)C(=O)N2Cc1ccccc1
Conditions	solubility (mole fraction)
in DMF, 293.15 K	0.15
in DMF, 298.15 K	0.163
in DMF, 303.15 K	0.179
in DMF, 308.15 K	0.196
in DMF, 312.65 K	0.211
in DMF, 316.05 K	0.224
in DMF, 320.35 K	0.242
in THF, 293.35 K	0.074
in THF, 298.15 K	0.0845
in THF, 303.15 K	0.0971
in THF, 308.15 K	0.111
in THF, 313.05 K	0.126
in THF, 318.15 K	0.142
in THF, 323.25 K	0.165
in dichloromethane, 293.25 K	0.121
in dichloromethane, 296.45 K	0.127
in dichloromethane, 299.35 K	0.132
in dichloromethane, 302.25 K	0.138
in dichloromethane, 305.45 K	0.144
in dichloromethane, 308.15 K	0.149
in dichloromethane, 311.35 K	0.155
in ethyl acetate, 293.65 K	0.0221
in ethyl acetate, 298.35 K	0.0271
in ethyl acetate, 304.15 K	0.0332
in ethyl acetate, 308.25 K	0.0391
in ethyl acetate, 314.15 K	0.0487
in ethyl acetate, 318.15 K	0.0576
in ethyl acetate, 323.75 K	0.0716
in methanol, 287.15 K	0.0034
in methanol, 293.15 K	0.0049
in methanol, 298.15 K	0.0067
in methanol, 303.25 K	0.0088
in methanol, 308.05 K	0.0119
in methanol, 313.45 K	0.016
in methanol, 318.15 K	0.0211
in toluene, 291.15 K	0.0073
in toluene, 298.15 K	0.0101
in toluene, 303.05 K	0.0125
in toluene, 308.65 K	0.0157
in toluene, 313.25 K	0.0197
in toluene, 317.95 K	0.0242
in toluene, 323.75 K	0.0316
